Experimental data from patent publication US7618774B2, “Materials and methods for identifying genes and/or agents that alter replicative lifespan” (University of Rochester, priority 2003, dated 2009).
Entries after “also recorded” stand apart in the source; their conditions may differ.

Tests used:
K6001 cells = assay: DEAD assay for replicative lifespan; type: cell-based, S. cerevisiae
Excerpt: One yeast strain that can be used in the assays of the present invention is S. cerevisiae strain K6001, which carries two distinct non-native genes (i.e., not contained within a single cassette). This strain was originally developed for the study of mating-type switching (Bobola et al. “Asymmetric Accumulation of Ash1p in Postanaphase Nuclei Depends on a Myosin and Restricts Yeast Mating-Type Switching to Mother Cells,” Cell 84:699-709 (1996), which is hereby incorporated by reference in its entirety). K6001 cells contain two independent copies of CDC6 expressed from either the repressible GAL1or mother-cell specific HO promoters. Cdc6p is an essential protein required for DNA replication. Transcription from the HO promoter in daughter cells is prevented by Ash1p, which is expressed exclusively in daughter cells (Sil, et al., “Identification of Asymmetrically Localized Determinant, Ash1p, Required for Lineage-Specific Transcription of the Yeast HO Gene,” Cell 84:711-22 (1996), which is hereby incorporated by reference in its entirety). When K6001 cells are cultured on galactose, GAL1::CDC6 is expressed in both mother and daughter cells, sustaining the replication of both. However, when the GAL1::CDC6 gene is repressed by glucose, only the mother-specific expression of HO::CDC6 remains to support growth. Given the tight regulation of the GAL1promoter, DNA replication fails and daughter cells arrest after one, or at most a few ectopic cytokineses. As a result, K6001 cultures grow approximately linearly in glucose (daughter cells accumulate and contribute to the optical density of the culture) until the mother cells reach their replicative capacity and cease producing daughter cells. Since Cdc6 is naturally unstable, and the GAL1 promoter is efficiently shut off in glucose, the transition from log growth to linear growth is relatively tight and rapid. […]
The DEAD assay was used to assess the effect of deleting SGS1 on replicative lifespan. […] After 48 hrs at 30° C. the number of daughter cells in each microcolony was counted by microdissection and plotted as a survival curve. […]

yeast = settings: literature reports; cited from earlier work
mammalian cells = settings: literature reports; cited from earlier work
Sir2 = Sir2 (Saccharomyces cerevisiae, UniProt P06700); settings: in vitro; cited from earlier work
Sequence of Sir2 (P06700 whole entry): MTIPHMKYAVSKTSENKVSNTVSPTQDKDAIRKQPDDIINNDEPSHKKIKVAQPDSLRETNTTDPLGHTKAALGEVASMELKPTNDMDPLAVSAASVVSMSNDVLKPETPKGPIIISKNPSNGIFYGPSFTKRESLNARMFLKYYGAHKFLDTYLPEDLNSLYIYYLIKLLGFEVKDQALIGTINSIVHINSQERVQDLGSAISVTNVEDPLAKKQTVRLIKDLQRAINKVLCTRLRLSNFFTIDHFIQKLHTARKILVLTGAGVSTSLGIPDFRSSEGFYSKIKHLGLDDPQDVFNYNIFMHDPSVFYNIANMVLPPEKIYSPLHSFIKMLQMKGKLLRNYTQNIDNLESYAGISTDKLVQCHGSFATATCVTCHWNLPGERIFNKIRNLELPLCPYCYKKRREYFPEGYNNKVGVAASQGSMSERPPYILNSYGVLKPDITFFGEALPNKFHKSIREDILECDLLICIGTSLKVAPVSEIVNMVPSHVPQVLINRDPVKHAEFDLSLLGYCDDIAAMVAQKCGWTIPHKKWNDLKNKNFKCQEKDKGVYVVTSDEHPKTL

| SMILES | lifespan (replicative) (K6001 cells; K6001 cells cultured in 5 μM paraquat versus lower concentration, FIG. 4) | mean lifespan (replicative) (K6001 cells; K6001 cells, paraquat between 0.1 μM to 5.0 μM, FIG. 4) | replicative lifespan of yeast (yeast) | apoptosis (mammalian cells) | mean lifespan (replicative) (K6001 cells; K6001 cells cultured in presence or absence of 10 μM resveratrol, FIG. 3) | Sir2 activation (Sir2) |
| --- | --- | --- | --- | --- | --- | --- |
| C[n+]1ccc(-c2cc[n+](C)cc2)cc1 [paraquat] | apparently shorter | decreased in a dose-dependent fashion | reduce replicative lifespan in yeast | induce apoptosis in mammalian cells | – | – |
| Oc1ccc(C=Cc2cc(O)cc(O)c2)cc1 [resveratrol] | – | – | extends the replicative lifespan of yeast | – | significantly extended the mean lifespan; also recorded: longer mean lifespan | actives Sir2 in vitro |
